{"source": "patent US7638320B2", "about": "“Bengamide derivatives, process for preparing them, and their use” (sanofi-aventis Deutschland GmbH, priority 2003, dated 2009)", "key": {"[1]": {"system": "Hep-G2 (ATCC No. HB-8065) tumor cell line", "assay": "Cell proliferation test (intracellular ATP, CellTiterGlo) on Hep-G2", "format": "cell-based", "conditions": "read-out: Activity in a cell proliferation test, expressed as TC50 value, Hep-G2", "protocol": "(§1) A test which is based on determining the intracellular concentration of ATP is employed for detecting the inhibition of cell proliferation. It is possible to use known tumor cell lines such as Hep-G2 and Colo205. In this test, the ATP content of metabolically active cells serves, in a luciferase reaction, as a measure of the number of living cells.\n(§2) The compounds of the formula (II)-(VI) were used in the test in a single dose of 0.3-40 μM and a dose dependency given as a TC50 value, with (IIA) and (IIB) in each case denoting a diastereomer of the compound of the formula (II): […]\n(§3) The tumor cell lines Hep-G2 (ATCC No. HB-8065) and COLO 205 (ATCC No. CCL-222) were used for determining the cell proliferation. The cell lines were sown in cell culture medium at the rate of 1000 cells/well [Hep-G2] and, respectively, 3500 cells/well [Colo205] and incubated for 4 hours at 37° C. and 5% CO2.\nMedium for Hep-G2: Dulbecco's modified Eagle's medium/Ham's F12 mix (Gibco); NEAA (10%; nonessential amino acids, Gibco), sodium pyruvate (1%, Gibco), L-glutamine (1%, Gibco), fetal calf serum (5%; PAA)].\n(§4) After 4 hours, compounds (II), (III) and (IV) and bengamides E and F, dissolved in DMSO/cell culture medium, were added at various dilutions and the mixtures were incubated for 72 hours at 37° C. and 5% CO2. The intracellular content of ATP was determined using the test reagent CellTiterGlo (Promega)."}, "[2]": {"system": "COLO 205 (ATCC No. CCL-222) tumor cell line", "assay": "Cell proliferation test (intracellular ATP, CellTiterGlo) on COLO 205", "format": "cell-based", "conditions": "read-out: Activity in a cell proliferation test, expressed as TC50 value, Colo 205", "protocol": "as §1, §2, §3\nMedium for COLO 205: RPMI 1640 (Gibco), L-glutamine (1%, Gibco), HEPES (1%, Gibco), fetal calf serum (10%, PAA).\nas §4"}, "[3]": {"system": "eukaryotic cells, nematodes and bacteria", "conditions": "Adamczewski et al., J. Org. Chem. 1986; cited from earlier work"}, "cell proliferation": {"system": "cell proliferation", "conditions": "stops cell division at the G1/S restriction point and in the G2/M phase; cited from earlier work"}, "[4]": {"conditions": "Colo 205, 72 hours incubation, ATP content, tested at 0.3-40 μM"}}, "note": "Read-outs that look alike come from different tables or passages of the source."}
{"smiles": "CCC(C)/C=C/C(O)C(O)C(O)[C@@H](OC)C(=O)N[C@H]1CCCCN(C)C1=O", "note": "(stereo partly shown) [(III)]", "values": [{"measurement": "TC50 (50% inhibition of cell proliferation)", "setting": "[1]; Homo sapiens, HepG2, 72 h", "result": 9, "unit": "µM"}, {"measurement": "CC50", "setting": "[2]; Homo sapiens, COLO 205, 72 h", "result": 15, "unit": "µM"}]}
{"smiles": "CCC(C)/C=C/C(O)C(O)C(O)[C@@H](OC)C(=O)N[C@H]1CCC(O)CNC1=O", "note": "(stereo partly shown) [(IV)]", "values": [{"measurement": "TC50 (50% inhibition of cell proliferation)", "setting": "[1]; Homo sapiens, HepG2, 72 h", "result": "> 40", "unit": "µM"}, {"measurement": "CC50", "setting": "[2]; [4]", "result": 42, "unit": "µM"}]}
{"smiles": "CCCCCCCCCCCCCC(=O)O[C@H]1CC[C@H](NC(=O)[C@H](OC)[C@H](O)[C@@H](O)[C@H](O)/C=C/C(C)C)C(=O)NC1", "note": "[Bengamide A]", "values": [{"measurement": "Biotoxicity to eukaryotic cells, nematodes and bacteria", "setting": "[3]", "result": "biotoxic"}]}
{"smiles": "CCCCCCCCCCCCCC(=O)O[C@H]1CC[C@H](NC(=O)[C@H](OC)[C@H](O)[C@@H](O)[C@H](O)/C=C/C(C)C)C(=O)N(C)C1", "note": "[Bengamide B]", "values": [{"measurement": "Biotoxicity to eukaryotic cells, nematodes and bacteria", "setting": "[3]", "result": "biotoxic"}]}
{"smiles": "CO[C@@H](C(=O)N[C@H]1CCCCNC1=O)[C@H](O)[C@@H](O)[C@H](O)/C=C/C(C)C", "note": "[Bengamide E]", "values": [{"measurement": "TC50 (50% inhibition of cell proliferation)", "setting": "[1]; Homo sapiens, HepG2, Hep-G2, 72 hours incubation, ATP content, tested at 0.3-40 μM", "result": 36, "unit": "µM"}, {"measurement": "CC50", "setting": "[2]; [4]", "result": 46, "unit": "µM"}, {"measurement": "Inhibition of cell proliferation", "setting": "cell proliferation", "result": "inhibits cell proliferation"}]}
{"smiles": "CO[C@@H](C(=O)N[C@H]1CCCCN(C)C1=O)[C@H](O)[C@@H](O)[C@H](O)/C=C/C(C)C", "note": "[Bengamide F]", "values": [{"measurement": "TC50 (50% inhibition of cell proliferation)", "setting": "[1]; Hep-G2, 72 hours incubation, ATP content, tested at 0.3-40 μM", "result": 27, "unit": "µM"}, {"measurement": "CC50", "setting": "[2]; [4]", "result": 33, "unit": "µM"}]}
{"smiles": "CCC(C)/C=C/C(O)C(O)C(O)[C@@H](OC)C(=O)N[C@H]1CCCCNC1=O", "note": "(stereo partly shown) [Compound (II)]", "values": [{"measurement": "TC50 (50% inhibition of cell proliferation)", "setting": "[1]; Homo sapiens, HepG2, 72 h", "result": 16, "unit": "µM"}, {"measurement": "CC50", "setting": "[2]; Homo sapiens, COLO 205, 72 h", "result": 27, "unit": "µM"}]}
